Data: ChEMBL document CHEMBL4765228, “Indole-like Trk receptor antagonists” (Eur J Med Chem, 2016)
The source made the active and inactive calls. The calls are words filed in the database; no cut-off is given here.

What was measured:
[1] = target: High affinity nerve growth factor receptor (Rattus norvegicus) (UniProt P35739); test: Inhibition of TrkA phosphorylation in rat PC12 cells at 1 uM after 5 mins in presence of NGF by Western blot analysis; assay type: cell-based; conditions: PC-12
[2] = target: MAP/microtubule affinity-regulating kinase 3 (Homo sapiens) (UniProt P27448); test: Inhibition of human MARK3 assessed as residual activity at 0.1 uM relative to control
[3] = target: BDNF/NT-3 growth factors receptor (Mus musculus) (UniProt P15209); test: Inhibition of TrkB in mouse MG87 cells transfected with pFA2-Elk plasmid and pFR-luciferase plasmid assessed as reduction in ERK1/ERK2 phosphorylation at 0.01 to 1 uM after 5 mins in presence of BDNF by Western blot analysis; assay type: cell-based; conditions: dose 0.01-1 µM
[4] = target: Ribosomal protein S6 kinase alpha-5 (Homo sapiens) (UniProt O75582); test: Inhibition of human RPS6KA5 assessed as residual activity at 0.1 uM relative to control
Sequence of Ribosomal protein S6 kinase alpha-5 (Homo sapiens) (O75582 whole entry, looked up): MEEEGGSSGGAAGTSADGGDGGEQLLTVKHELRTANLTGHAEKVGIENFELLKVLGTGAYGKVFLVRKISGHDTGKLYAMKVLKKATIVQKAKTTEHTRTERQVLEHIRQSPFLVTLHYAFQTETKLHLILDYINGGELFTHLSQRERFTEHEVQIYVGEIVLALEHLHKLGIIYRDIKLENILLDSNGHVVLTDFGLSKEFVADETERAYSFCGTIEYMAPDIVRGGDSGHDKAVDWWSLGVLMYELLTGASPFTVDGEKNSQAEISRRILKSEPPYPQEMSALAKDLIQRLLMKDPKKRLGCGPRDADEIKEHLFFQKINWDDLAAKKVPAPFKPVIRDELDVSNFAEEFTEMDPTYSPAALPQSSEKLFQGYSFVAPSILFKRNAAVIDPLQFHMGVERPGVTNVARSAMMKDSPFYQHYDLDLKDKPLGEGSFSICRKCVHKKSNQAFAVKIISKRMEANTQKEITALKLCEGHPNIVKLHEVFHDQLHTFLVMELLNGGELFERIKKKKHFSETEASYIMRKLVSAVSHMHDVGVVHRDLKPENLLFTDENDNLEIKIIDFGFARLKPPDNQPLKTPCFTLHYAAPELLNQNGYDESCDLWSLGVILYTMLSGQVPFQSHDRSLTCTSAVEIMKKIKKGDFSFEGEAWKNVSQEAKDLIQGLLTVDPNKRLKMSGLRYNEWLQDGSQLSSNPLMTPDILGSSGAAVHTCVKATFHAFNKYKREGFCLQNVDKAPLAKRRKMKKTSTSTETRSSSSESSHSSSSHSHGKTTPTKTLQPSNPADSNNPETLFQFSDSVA

[5] = target: Dual specificity tyrosine-phosphorylation-regulated kinase 1A (Homo sapiens) (UniProt Q13627); test: Inhibition of human DYRK1A assessed as residual activity at 0.1 uM relative to control
[6] = target: BDNF/NT-3 growth factors receptor (Mus musculus) (UniProt P15209); test: Inhibition of TrkB in mouse MG87 cells transfected with pFA2-Elk plasmid and pFR-luciferase plasmid assessed as reduction in Akt phosphorylation at 0.01 to 1 uM after 5 mins in presence of BDNF by Western blot analysis; assay type: cell-based; conditions: dose 0.01-1 µM
[7] = target: T1, Mitogen-activated protein kinase kinase kinase 7 (Homo sapiens) (UniProt O43318); test: Inhibition of human MAP3K7 assessed as residual activity at 0.1 uM relative to control
T1 sequence (whole entry): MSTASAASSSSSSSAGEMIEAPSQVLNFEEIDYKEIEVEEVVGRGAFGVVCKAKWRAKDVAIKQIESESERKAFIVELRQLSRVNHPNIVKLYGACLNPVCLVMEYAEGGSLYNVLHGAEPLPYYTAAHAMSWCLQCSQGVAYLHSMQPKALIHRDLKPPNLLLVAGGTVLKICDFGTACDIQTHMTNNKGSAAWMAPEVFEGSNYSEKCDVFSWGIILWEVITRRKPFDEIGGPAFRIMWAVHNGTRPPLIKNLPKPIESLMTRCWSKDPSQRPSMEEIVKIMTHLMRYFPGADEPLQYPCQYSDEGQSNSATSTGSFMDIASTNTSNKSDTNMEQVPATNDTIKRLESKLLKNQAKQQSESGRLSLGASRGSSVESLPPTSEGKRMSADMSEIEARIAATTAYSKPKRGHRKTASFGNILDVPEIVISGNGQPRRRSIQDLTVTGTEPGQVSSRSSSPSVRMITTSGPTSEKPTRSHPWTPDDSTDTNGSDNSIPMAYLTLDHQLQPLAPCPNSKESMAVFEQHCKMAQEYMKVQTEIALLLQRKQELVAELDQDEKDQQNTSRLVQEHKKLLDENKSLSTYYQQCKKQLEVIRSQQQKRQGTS

[8] = target: BDNF/NT-3 growth factors receptor (Mus musculus) (UniProt P15209); test: Inhibition of TrkB phosphorylation in mouse MG87 cells transfected with pFA2-Elk plasmid and pFR-luciferase plasmid at 1 uM after 5 mins in presence of BDNF by Western blot analysis; assay type: cell-based
[9] = target: High affinity nerve growth factor receptor (Rattus norvegicus) (UniProt P35739); test: Inhibition of TrkA in rat PC-12 cells assessed as reduction in Akt phosphorylation at 0.01 to 1 uM after 5 mins in presence of NGF by Western blot analysis; assay type: cell-based; conditions: dose 0.01-1 µM
[10] = target: Mitogen-activated protein kinase kinase kinase 11 (Homo sapiens) (UniProt Q16584); test: Inhibition of human MAP3K11 assessed as residual activity at 1 uM relative to control
Sequence of Mitogen-activated protein kinase kinase kinase 11 (Homo sapiens) (Q16584 whole entry, looked up): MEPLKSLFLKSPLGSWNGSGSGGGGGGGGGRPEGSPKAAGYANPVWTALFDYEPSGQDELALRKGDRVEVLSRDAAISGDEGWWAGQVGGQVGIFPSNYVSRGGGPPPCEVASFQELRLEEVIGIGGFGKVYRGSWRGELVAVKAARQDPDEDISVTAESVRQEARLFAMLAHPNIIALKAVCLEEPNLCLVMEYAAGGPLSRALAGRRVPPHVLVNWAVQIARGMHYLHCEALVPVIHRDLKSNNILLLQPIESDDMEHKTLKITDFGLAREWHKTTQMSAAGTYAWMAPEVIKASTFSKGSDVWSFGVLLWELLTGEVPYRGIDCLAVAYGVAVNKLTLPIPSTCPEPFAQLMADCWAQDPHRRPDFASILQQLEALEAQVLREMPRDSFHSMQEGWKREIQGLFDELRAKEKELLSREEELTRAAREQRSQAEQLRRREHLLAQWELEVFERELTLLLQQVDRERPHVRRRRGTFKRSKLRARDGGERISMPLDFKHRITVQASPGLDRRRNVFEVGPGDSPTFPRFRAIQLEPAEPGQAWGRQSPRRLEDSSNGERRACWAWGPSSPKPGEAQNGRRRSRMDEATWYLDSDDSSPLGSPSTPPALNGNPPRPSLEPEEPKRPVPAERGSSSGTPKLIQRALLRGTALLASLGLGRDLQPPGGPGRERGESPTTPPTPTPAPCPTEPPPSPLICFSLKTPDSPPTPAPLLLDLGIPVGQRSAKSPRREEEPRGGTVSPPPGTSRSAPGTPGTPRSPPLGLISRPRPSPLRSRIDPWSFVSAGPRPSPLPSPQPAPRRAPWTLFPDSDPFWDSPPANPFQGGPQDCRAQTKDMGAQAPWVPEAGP

[11] = target: High affinity nerve growth factor receptor (Rattus norvegicus) (UniProt P35739); test: Inhibition of TrkA in rat PC12 cells assessed as reduction in ERK1/ERK2 phosphorylation at 0.01 to 1 uM after 5 mins in presence of NGF by Western blot analysis; assay type: cell-based; conditions: PC-12, dose 0.01-1 µM
[12] = target: T2, Serine/threonine-protein kinase 3 (Homo sapiens) (UniProt Q13188); test: Inhibition of human MST2 assessed as residual activity at 0.1 uM relative to control
T2 sequence (whole entry): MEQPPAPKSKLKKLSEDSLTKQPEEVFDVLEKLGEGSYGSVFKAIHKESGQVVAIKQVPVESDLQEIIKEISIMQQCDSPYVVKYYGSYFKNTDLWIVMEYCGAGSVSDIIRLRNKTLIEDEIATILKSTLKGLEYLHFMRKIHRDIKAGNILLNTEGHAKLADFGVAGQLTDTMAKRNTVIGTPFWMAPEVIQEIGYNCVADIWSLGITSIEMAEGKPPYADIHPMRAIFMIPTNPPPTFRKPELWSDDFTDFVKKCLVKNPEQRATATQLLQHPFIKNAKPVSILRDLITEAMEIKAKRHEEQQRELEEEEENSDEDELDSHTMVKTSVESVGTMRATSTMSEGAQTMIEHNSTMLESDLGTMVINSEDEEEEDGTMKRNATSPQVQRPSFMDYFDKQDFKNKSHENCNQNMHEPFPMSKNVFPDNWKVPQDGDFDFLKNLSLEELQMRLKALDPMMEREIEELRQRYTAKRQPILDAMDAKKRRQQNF

[13] = target: MAP/microtubule affinity-regulating kinase 3 (Homo sapiens) (UniProt P27448); test: Inhibition of human MARK3 assessed as residual activity at 1 uM relative to control
Homo sapiens = species on record: Homo sapiens; test: Inhibition of human PKA assessed as residual activity at 1 uM relative to control
[14] = target: Receptor-interacting serine/threonine-protein kinase 2 (Homo sapiens) (UniProt O43353); test: Inhibition of human RIPK2 assessed as residual activity at 1 uM relative to control
[15] = target: Dual specificity mitogen-activated protein kinase kinase 1 (Homo sapiens) (UniProt Q02750); test: Inhibition of human wild type MEK1 assessed as residual activity at 0.1 uM relative to control
Sequence of Dual specificity mitogen-activated protein kinase kinase 1 (Homo sapiens) (Q02750 whole entry): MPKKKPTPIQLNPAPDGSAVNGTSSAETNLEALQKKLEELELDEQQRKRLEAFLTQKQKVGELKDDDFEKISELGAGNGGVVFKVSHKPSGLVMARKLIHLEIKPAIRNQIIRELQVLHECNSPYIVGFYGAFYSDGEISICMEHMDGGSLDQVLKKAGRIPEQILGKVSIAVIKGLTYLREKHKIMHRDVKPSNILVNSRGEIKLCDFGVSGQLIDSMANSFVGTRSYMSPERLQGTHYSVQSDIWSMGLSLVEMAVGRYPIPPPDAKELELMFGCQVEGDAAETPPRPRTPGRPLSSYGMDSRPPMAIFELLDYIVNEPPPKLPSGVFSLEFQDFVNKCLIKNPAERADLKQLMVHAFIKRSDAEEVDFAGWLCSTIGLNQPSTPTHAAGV

[16] = target: Homeodomain-interacting protein kinase 2 (Homo sapiens) (UniProt Q9H2X6); test: Inhibition of human HIPK2 assessed as residual activity at 0.1 uM relative to control
Sequence of Homeodomain-interacting protein kinase 2 (Homo sapiens) (Q9H2X6 whole entry, looked up): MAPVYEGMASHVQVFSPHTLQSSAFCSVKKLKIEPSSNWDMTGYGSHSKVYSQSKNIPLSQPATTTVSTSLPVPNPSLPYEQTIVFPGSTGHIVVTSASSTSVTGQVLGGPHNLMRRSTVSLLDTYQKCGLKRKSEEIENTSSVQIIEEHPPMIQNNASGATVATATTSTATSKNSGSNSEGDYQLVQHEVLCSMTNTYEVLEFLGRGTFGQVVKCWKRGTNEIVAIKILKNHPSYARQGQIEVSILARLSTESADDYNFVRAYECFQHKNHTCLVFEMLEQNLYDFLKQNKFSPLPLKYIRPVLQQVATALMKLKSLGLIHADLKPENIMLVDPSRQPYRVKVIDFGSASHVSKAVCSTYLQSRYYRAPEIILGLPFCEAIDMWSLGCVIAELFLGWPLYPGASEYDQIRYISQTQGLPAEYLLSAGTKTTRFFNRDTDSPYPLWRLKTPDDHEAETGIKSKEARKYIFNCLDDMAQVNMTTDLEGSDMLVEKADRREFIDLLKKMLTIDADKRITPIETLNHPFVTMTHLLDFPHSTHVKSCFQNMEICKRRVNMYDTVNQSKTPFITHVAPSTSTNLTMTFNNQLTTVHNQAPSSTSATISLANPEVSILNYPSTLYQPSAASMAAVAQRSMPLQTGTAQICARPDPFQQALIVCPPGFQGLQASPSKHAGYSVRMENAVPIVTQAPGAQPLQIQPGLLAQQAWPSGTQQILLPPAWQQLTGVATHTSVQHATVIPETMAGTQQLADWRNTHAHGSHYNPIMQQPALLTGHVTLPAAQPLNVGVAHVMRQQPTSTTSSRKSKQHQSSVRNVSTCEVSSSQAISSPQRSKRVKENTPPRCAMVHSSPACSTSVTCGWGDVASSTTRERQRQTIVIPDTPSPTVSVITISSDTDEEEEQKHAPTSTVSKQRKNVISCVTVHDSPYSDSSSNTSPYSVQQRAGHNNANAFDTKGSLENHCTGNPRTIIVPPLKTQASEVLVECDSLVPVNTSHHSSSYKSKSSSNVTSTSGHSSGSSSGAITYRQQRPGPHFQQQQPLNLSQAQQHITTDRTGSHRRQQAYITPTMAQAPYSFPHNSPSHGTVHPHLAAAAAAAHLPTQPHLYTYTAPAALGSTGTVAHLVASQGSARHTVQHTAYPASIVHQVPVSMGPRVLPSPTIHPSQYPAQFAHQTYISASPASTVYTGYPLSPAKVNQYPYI

[17] = target: 3-phosphoinositide-dependent protein kinase 1 (Homo sapiens) (UniProt O15530); test: Inhibition of human PDK1 assessed as residual activity at 0.1 uM relative to control
Sequence of 3-phosphoinositide-dependent protein kinase 1 (Homo sapiens) (O15530 whole entry, looked up): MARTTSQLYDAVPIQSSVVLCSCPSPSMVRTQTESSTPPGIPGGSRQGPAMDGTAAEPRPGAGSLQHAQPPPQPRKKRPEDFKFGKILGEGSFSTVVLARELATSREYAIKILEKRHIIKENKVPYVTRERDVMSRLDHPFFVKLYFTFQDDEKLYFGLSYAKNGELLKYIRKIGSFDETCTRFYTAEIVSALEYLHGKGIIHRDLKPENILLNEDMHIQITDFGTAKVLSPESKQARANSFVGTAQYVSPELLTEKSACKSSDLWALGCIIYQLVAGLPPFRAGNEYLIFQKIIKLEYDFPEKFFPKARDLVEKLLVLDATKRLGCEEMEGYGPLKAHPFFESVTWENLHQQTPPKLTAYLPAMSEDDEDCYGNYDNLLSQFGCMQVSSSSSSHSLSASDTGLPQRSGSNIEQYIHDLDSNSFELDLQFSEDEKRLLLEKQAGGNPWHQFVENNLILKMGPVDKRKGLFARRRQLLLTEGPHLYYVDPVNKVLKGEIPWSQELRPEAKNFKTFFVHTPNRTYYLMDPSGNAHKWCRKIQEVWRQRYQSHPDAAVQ

[18] = target: BDNF/NT-3 growth factors receptor (Homo sapiens, UniProt Q16620); test: Inhibition of TrkB (unknown origin)
Sequence of BDNF/NT-3 growth factors receptor (Q16620 whole entry, the tested form may be a part): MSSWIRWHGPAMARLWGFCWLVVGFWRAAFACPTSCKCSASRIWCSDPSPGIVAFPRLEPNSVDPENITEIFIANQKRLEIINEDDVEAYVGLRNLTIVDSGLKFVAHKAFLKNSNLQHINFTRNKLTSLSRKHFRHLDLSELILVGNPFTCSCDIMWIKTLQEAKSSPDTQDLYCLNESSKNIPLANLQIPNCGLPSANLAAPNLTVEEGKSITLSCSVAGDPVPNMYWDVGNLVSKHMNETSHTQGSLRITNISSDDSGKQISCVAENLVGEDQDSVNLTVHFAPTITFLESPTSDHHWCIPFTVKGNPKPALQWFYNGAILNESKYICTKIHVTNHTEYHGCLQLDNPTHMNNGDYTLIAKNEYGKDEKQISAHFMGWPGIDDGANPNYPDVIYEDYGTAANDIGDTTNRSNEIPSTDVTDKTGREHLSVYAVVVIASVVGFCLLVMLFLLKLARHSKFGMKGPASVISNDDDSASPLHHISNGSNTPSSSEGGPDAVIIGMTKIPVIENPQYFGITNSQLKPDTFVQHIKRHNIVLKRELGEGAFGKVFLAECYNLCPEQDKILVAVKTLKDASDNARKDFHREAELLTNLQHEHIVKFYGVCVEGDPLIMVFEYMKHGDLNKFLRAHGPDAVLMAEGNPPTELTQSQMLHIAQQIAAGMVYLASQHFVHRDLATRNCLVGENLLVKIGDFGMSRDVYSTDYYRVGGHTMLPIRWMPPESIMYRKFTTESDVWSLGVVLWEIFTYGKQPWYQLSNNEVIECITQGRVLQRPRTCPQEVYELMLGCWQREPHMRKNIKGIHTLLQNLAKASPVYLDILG

[19] = target: Tyrosine-protein kinase SYK (Homo sapiens) (UniProt P43405); test: Inhibition of human SYK (1 to 635 residues) assessed as residual activity at 1 uM relative to control
[20] = target: High affinity nerve growth factor receptor (Homo sapiens, UniProt P04629); test: Inhibition of GAL4 fused TrkA (unknown origin) expressed in PC12 cells transfected with pFA2-Elk plasmid and pFR-luciferase plasmid measured for 18 hrs by luciferase reporter gene assay; assay type: cell-based, Rattus norvegicus, PC-12
[21] = target: Tyrosine-protein kinase SYK (Homo sapiens) (UniProt P43405); test: Inhibition of human SYK (1 to 635 residues) assessed as residual activity at 0.1 uM relative to control
[22] = target: NT-3 growth factor receptor (Homo sapiens, UniProt Q16288); test: Inhibition of TrkC (unknown origin)

Structure (SMILES) | inhibition [1] | Activity [2] [%] | inhibition [3] | Activity [4] [%] | Activity [5] [%] | inhibition [6] | Activity [7] [%] | Activity [10] [%] | Activity [12] [%] | Activity [13] [%] | Activity (Homo sapiens) [%] | Activity [14] [%] | Activity [15] [%] | Activity [16] [%] | Activity [17] [%] | IC50 [18] [nM] | Activity [19] [%] | IC50 [20] [nM] | Activity [21] [%] | IC50 [22] [nM] | also measured
COc1ccc2c(c1)c(/C=C1\C(=O)Nc3ccc(S(N)(=O)=O)cc31)cn2C | Active | 96 | Active | 103 | 101 | Active | 93 | 38 | 86 | 90 | 91 | 97 | 82 | 108 | 93 |  |  |  |  |  | inhibition [8]: Active; inhibition [9]: Active; inhibition [11]: Active
COc1ccc2[nH]cc(/C=C3\C(=O)Nc4ccc(S(N)(=O)=O)cc43)c2c1 |  | 101 |  | 93 | 105 |  | 93 | 25 | 101 | 93 | 84 | 48 | 87 | 124 | 98 | 8.53 | 35 | 103 | 86 | 8.82 | 
CN(C)S(=O)(=O)c1ccc2c(c1)/C(=C/c1cn(C)c3ccc(O)cc13)C(=O)N2 |  | 103 |  | 106 | 101 |  | 101 | 51 | 98 | 96 | 103 | 89 | 107 | 120 | 94 | 13.5 | 91 | 92.8 | 107 | 9.72 | 
Cn1cc(/C=C2\C(=O)Nc3ccc(S(N)(=O)=O)cc32)c2ccccc21 |  | 93 |  | 99 | 122 |  | 85 | 12 | 91 | 88 | 87 | 84 | 67 | 112 | 90 | 7.62 | 47 | 36.7 | 69 | 6.86 | 
COc1ccc2c(c1)c(/C=C1\C(=O)Nc3ccc(S(=O)(=O)N(C)C)cc31)cn2C | Active | 93 | Active | 105 | 98 | Active | 106 | 37 | 101 | 97 | 98 | 95 | 104 | 109 | 99 | 15.2 | 91 | 46 | 102 | 11.7 | inhibition [8]: Active; inhibition [9]: Active; inhibition [11]: Active
CNS(=O)(=O)c1ccc2c(c1)/C(=C/c1cn(C)c3ccc(OC)cc13)C(=O)N2 | Active | 100 | Active | 96 | 89 | Active | 104 | 55 | 95 | 87 | 83 | 100 | 104 | 106 | 92 |  |  |  |  |  | inhibition [8]: Active; inhibition [9]: Active; inhibition [11]: Active
